Experimental data published in the supplement of paper PMC10307832.

Legend:
Test in all cases: relative viability (nuclei count vs DMSO), 5 days (fraction); higher = more cells survive
[1] = compound: C1/C(=C\C2=CC=CS2)/C(=O)/C(=C/C3=CC=CS3)/C1 + CC(=O)Nc1cccc(-n2c(=O)n(C3CC3)c(=O)c3c(Nc4ccc(I)cc4F)n(C)c(=O)c(C)c32)c1 [Trametinib] (partner 0.02 µM)
In short: (§1)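 Relative viability is defined as nuclei in treated wells over nuclei in vehicle wells. Duplicate plates were run and medians reported. Lung cancer cell lines in 1536-well plates were dosed by pin tool one day after seeding, with one drug or with a fixed anchor-drug dose plus five library-drug doses (not always all listed) in √10 steps, and nuclei were counted after 5 days.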

[2] = compound: C1/C(=C\C2=CC=CS2)/C(=O)/C(=C/C3=CC=CS3)/C1 + COc1cc2c(Oc3ccc(NC(=O)C4(C(=O)Nc5ccc(F)cc5)CC4)cc3F)ccnc2cc1OCCCN1CCOCC1 [Foretinib] (partner 0.25 µM)
In short: as §1

[3] = compound: C[C@]12O[C@H](C[C@]1(O)CO)n1c3ccccc3c3c4c(c5c6ccccc6n2c5c31)CNC4=O [Lestaurtinib] + COc1cc2c(Oc3ccc(NC(=O)C4(C(=O)Nc5ccc(F)cc5)CC4)cc3F)ccnc2cc1OCCCN1CCOCC1 [Foretinib] (partner 0.25 µM)
In short: as §1

[4] = compound: C1/C(=C\C2=CC=CS2)/C(=O)/C(=C/C3=CC=CS3)/C1 + Cc1cc(Nc2cc(N3CCN(C)CC3)nc(Sc3ccc(NC(=O)C4CC4)cc3)n2)n[nH]1 [Tozasertib] (partner 0.1 µM)
In short: as §1

Row | Cell Line | relative viability ([1]; first compound 0.2 µM) | relative viability ([1]; first compound 0.6325 µM) | relative viability ([1]; first compound 2 µM) | relative viability ([1]; first compound 20 µM) | relative viability ([2]; first compound 0.2 µM) | relative viability ([2]; first compound 0.6325 µM) | relative viability ([2]; first compound 2 µM) | relative viability ([2]; first compound 6.325 µM) | relative viability ([2]; first compound 20 µM) | relative viability ([3]; first compound 0.005 µM) | relative viability ([3]; first compound 0.01581 µM) | relative viability ([3]; first compound 0.05 µM) | relative viability ([3]; first compound 0.1581 µM) | relative viability ([3]; first compound 0.5 µM) | relative viability ([4]; first compound 0.2 µM) | relative viability ([4]; first compound 0.6325 µM) | relative viability ([4]; first compound 2 µM) | relative viability ([4]; first compound 6.325 µM) | relative viability ([4]; first compound 20 µM) | relative viability ([1]; first compound 6.325 µM)
1 | NCI-H2009 | 0.284 | 0.308 | 0.317 | 0.272 | 1.31 | 1.23 | 1.2 | 1.2 | 1.21 | 1.24 | 1.3 | 1.17 | 1.09 | 0.751 | 0.764 | 0.814 | 0.752 | 0.657 | 0.81 | –
2 | ABC-1 | – | – | – | – | 0.984 | 0.991 | 1.1 | 0.617 | 1.2 | 1.04 | 1.33 | 0.991 | 0.962 | 0.204 | 0.182 | 0.17 | 0.195 | 0.195 | 0.218 | –
3 | IA-LM | – | – | – | – | 1.17 | 1.24 | 1.21 | 1.08 | 1.06 | 1.37 | 1.4 | 1.53 | 1.22 | 0.59 | – | – | – | – | – | –
4 | NCI-H322M | 0.519 | 0.494 | 0.474 | 0.517 | 1 | 1.06 | 1.1 | 0.855 | 0.874 | 0.935 | 1.02 | 0.523 | 0.609 | 0.45 | 0.533 | 0.439 | 0.474 | 0.454 | 0.483 | 0.433
5 | NCI-H1792 | 0.432 | 0.531 | 0.533 | 0.35 | – | – | – | – | – | – | – | – | – | – | – | – | – | – | – | 0.525
6 | LXF-289 | 0.707 | 0.693 | 0.675 | 0.613 | 0.982 | 0.959 | 0.973 | 0.994 | 0.98 | 1.02 | 1.04 | 0.827 | 0.905 | 0.198 | 0.196 | 0.207 | 0.193 | 0.151 | 0.178 | 0.626
7 | HCC-827 | 0.548 | 0.558 | 0.524 | 0.54 | 1.04 | 0.939 | 1.02 | 0.96 | 1 | 1.02 | 1.02 | 0.835 | 0.803 | 0.202 | 0.414 | 0.405 | 0.441 | 0.44 | 0.503 | 0.5
8 | EMC-BAC-2 | 1 | 0.854 | 0.939 | 0.952 | 1.01 | 1.03 | 0.973 | 0.656 | 1.09 | 0.908 | 0.737 | 0.78 | 0.382 | 0.29 | 0.267 | 0.339 | 0.298 | 0.293 | 0.48 | 0.864
9 | NCI-H520 | 0.629 | 0.789 | 0.665 | 0.677 | 0.842 | 0.93 | 0.804 | 0.711 | 0.632 | 0.713 | 0.992 | 0.698 | 0.342 | 0.228 | 0.531 | 0.506 | 0.458 | 0.398 | 0.406 | –
10 | NCI-H1755 | 0.75 | 0.768 | 0.794 | 0.714 | 0.931 | 0.959 | 1.01 | 0.817 | 0.928 | 0.891 | 0.938 | 0.788 | 0.494 | 0.412 | 0.64 | 0.583 | 0.582 | 0.539 | 0.549 | 0.627
11 | NCI-H1993 | 0.491 | 0.412 | 0.478 | 0.447 | 0.748 | 0.751 | 0.75 | 0.572 | 0.745 | 0.791 | 0.771 | 0.77 | 0.63 | 0.535 | 0.567 | 0.556 | 0.594 | 0.559 | 0.506 | 0.437
12 | NCI-H23 | 0.411 | 0.406 | 0.4 | 0.365 | 0.973 | 1.13 | 1.07 | 0.851 | 0.991 | 1.02 | 1.22 | 0.837 | 0.635 | 0.321 | 0.374 | 0.394 | 0.373 | 0.421 | 0.323 | 0.369
13 | SW 900 | 0.739 | 0.752 | 0.815 | 0.734 | 0.823 | 0.817 | 0.804 | 0.9 | 1.16 | 0.719 | 0.891 | 1.17 | 0.868 | 0.793 | 0.514 | 0.567 | 0.558 | 0.618 | 0.584 | 0.308
14 | NCI-H1299 | – | – | – | – | 1.17 | 1.12 | 1.1 | 1.03 | 1.11 | 1.07 | 1.14 | 0.68 | 0.832 | 0.671 | – | – | – | – | – | –
15 | NCI-H1563 | – | – | – | – | 0.952 | 1.1 | 0.968 | 0.895 | 0.93 | 0.977 | 0.96 | 0.978 | 0.97 | 0.991 | – | – | – | – | – | –
16 | Calu-6 | – | – | – | – | 0.833 | 0.945 | 0.895 | 0.759 | 0.82 | 0.868 | 0.979 | 0.499 | 0.482 | 0.207 | – | – | – | – | – | –
17 | NCI-H1703 | – | – | – | – | 0.381 | 0.451 | 0.33 | 0.257 | 0.337 | 0.322 | 0.305 | 0.27 | 0.315 | 0.252 | – | – | – | – | – | –
18 | EBC-1 | – | – | – | – | 0.112 | 0.091 | 0.0946 | 0.111 | 0.0934 | 0.109 | 0.105 | 0.114 | 0.11 | 0.112 | – | – | – | – | – | –
19 | HCC-44 | 1.1 | 1.07 | 1.09 | 0.911 | – | – | – | – | – | – | – | – | – | – | 1.04 | 0.609 | 0.928 | 0.837 | 0.923 | 0.925
20 | NCI-H1648 | 0.604 | 0.628 | 0.435 | 0.256 | – | – | – | – | – | – | – | – | – | – | 0.598 | 0.559 | 0.467 | – | 0.4 | 0.417
21 | NCI-H522 | 0.726 | 0.728 | 0.715 | 0.767 | – | – | – | – | – | – | – | – | – | – | 0.6 | 0.506 | 0.523 | 0.549 | 0.583 | 0.739
22 | A549 | – | – | – | – | 0.888 | 1.01 | 0.968 | – | 0.937 | 1.09 | 1.07 | 0.579 | 0.301 | 0.169 | – | – | – | – | – | –
